Assay results published in patent US7279565B2, “Molecular regulatory circuits to achieve sustained activation of genes of interest by a single stress” (priority 1998, dated 2007).

How the values were obtained:
Assay type in all cases: cell-based
[1] = target: T1, transcription factor GLP65 (Homo sapiens, UniProt P06401+Q04206); assay: Stable HeLa-CAT line with genomic GAL4-fLuc and Hsp70/GAL4-GLP65-RKC transactivator, firefly luciferase assay; conditions: stable HeLa-CAT clonal line; mifepristone and/or heat treatment at 43° C.; assayed one day later; FIG. 7
T1 construct: expressed in transfected cells
Experimental: HeLa-CAT cells were cotransfected with GAL4-fLuc and Hsp70/GAL4-GLP65-RKC-neo (4:1 molar ratio), and transformants were selected using 400 μg/ml G418. Clonal lines were isolated. […] In the experiment shown in the Figure, parallel cultures of the cell line were either left untreated, or were heat-treated at 43° C. for the times indicated, exposed to mifepristone at the concentrations indicated, or both heat-treated and provided mifepristone. One day later, cells were harvested and assayed for firefly luciferase activity. […] Note that relative firefly luciferase activities are presented as fractions of the highest activity in the experiment.

[2] = target: T2, transcription factor GLP65 (Homo sapiens, UniProt P06401); assay: Molecular circuit Hsp70/GAL4-GLP65 + GAL4-fLuc in co-transfected HeLa cells, firefly luciferase assay; conditions: 10 nM mifepristone with or without heat treatment 43-44° C. for 30-60 min, assayed two or three days later, FIG. 6B
T2 construct: expressed in transfected cells; host or cells: human HeLa cells, transient co-transfection
T2 sequence (P06401 679-913 limits assumed): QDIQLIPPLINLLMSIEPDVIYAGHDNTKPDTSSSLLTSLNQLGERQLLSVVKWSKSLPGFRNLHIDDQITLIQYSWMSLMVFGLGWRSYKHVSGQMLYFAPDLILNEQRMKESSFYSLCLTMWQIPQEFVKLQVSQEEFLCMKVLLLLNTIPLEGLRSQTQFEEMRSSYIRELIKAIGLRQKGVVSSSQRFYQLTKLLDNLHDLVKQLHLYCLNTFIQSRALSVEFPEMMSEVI
Experimental: (§1) To test the molecular circuits outlined in FIG. 6A, human HeLa cells were co-transfected with appropriate amounts of Hsp70/GAL4-GLP65 and GAL4-fLuc or GAL4-hGH using Lipofectamine™ reagent (Life Technologies). For correction of differences in transfection efficiency, a small amount of pRL-CMV expressing a Renilla luciferase was also included in transfection mixtures. One day after transfection, cultures were either left untreated, were administered 10 nM mifepristone, were heat-treated (43-44° C. for 30-60 min), or were administered mifepristone and subjected to heat treatment. Two or three days later, cells were harvested and assayed for firefly luciferase activity using the Dual Luciferase Reporter Assay System (Promega Corp.) or for hGH activity using an ELISA kit distributed by Roche, respectively.

[3] = target: T2, transcription factor GLP65; assay: Molecular circuit Hsp70/GAL4-GLP65 + GAL4-hGH in co-transfected HeLa cells, hGH ELISA; conditions: 10 nM mifepristone with or without heat treatment 43-44° C. for 30-60 min, assayed two or three days later, FIG. 6C
Experimental: as §1

EcR/RXR = assay: Firefly luciferase reporter assay of the Hsp70/E/GRE combination promoter in transfected EcR-293 cells; conditions: EcR-293 cells transfected with Hsp70/E/GRE-fLuc; ponasterone A for 1-2 days
Experimental: To test the Hsp70/E/GRE combination promoter and compare it with the hsp70B and E/GRE promoters, EcR-293 cells were co-transfected using Lipofectamine™ reagent (Life Technologies) with Hsp70/E/GRE-fLuc, Hsp70-fLuc or E/GRE-fLuc and pRL-CMV containing a constitutively expressed Renilla luciferase gene. One day after transfection, parallel cultures were either left untreated or were subjected to a heat treatment at 43-44° C. for 30 min or to ponasterone A (Invitrogen Corp.) for 1-2 days. Cells were harvested (after ponasterone exposure or 6-7 h after heat treatment), and firefly luciferase activities were determined using the Dual Luciferase Reporter System (Promega Corp.). […] EcR-293 cells expressing activatable EcR/RXR were obtained from Invitrogen Corporation and were cultured according to the manufacturer's instructions.

T1 sequence (P06401+Q04206 fused): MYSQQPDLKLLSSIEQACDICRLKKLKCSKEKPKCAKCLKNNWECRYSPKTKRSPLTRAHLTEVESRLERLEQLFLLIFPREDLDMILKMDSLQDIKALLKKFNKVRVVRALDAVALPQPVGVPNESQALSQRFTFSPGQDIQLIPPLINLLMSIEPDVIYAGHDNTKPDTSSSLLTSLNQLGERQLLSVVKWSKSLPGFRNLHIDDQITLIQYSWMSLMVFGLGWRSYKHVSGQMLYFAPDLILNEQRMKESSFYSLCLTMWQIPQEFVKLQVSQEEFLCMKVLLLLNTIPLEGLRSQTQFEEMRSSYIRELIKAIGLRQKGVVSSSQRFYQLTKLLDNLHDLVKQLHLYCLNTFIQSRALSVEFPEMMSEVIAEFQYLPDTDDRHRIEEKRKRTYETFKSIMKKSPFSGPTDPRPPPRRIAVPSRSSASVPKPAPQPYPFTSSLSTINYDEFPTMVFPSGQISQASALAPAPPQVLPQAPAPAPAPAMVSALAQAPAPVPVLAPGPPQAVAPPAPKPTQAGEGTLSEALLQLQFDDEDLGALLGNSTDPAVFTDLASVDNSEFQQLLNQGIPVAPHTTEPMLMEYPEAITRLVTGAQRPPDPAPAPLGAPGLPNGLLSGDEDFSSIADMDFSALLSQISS

Structure (SMILES) | firefly luciferase activity of genomic luciferase gene [1] | expression of fLuc gene (relative firefly luciferase activity) [2] | expression of hGH gene (relative hGH activity) [3] | firefly luciferase activity (induction of the Hsp70/E/GRE combination promoter) (EcR/RXR)
CC#C[C@]1(O)CC[C@H]2[C@@H]3CCC4=CC(=O)CCC4=C3[C@@H](c3ccc(N(C)C)cc3)C[C@@]21C [mifepristone] | Elevated levels of luciferase activity were only measured in cells that were both administered mifepristone and had been subjected to heat treatment | essentially silent, except when the cells containing the respective gene switches were stressed (heat treatment) as well as were administered mifepristone | essentially silent, except when the cells containing the respective gene switches were stressed (heat treatment) as well as were administered mifepristone | –
CC(C)CC[C@@H](O)[C@](C)(O)[C@H]1CC[C@@]2(O)C3=CC(=O)[C@@H]4C[C@@H](O)[C@@H](O)C[C@]4(C)[C@H]3CC[C@]12C [ponasterone A] | – | – | – | strongly inducible by heat and ponasterone A
